Test results reported in patent publication US4362743A, “Antibacterial monic acid esters” (Beecham Group Limited, priority 1980, dated 1982).
In brackets after ≈: the same amount, converted by molar mass. Where two headings read alike, the source gives them in different places.

Columns and labels:
Assay type in all cases: cell-based
[1] = system: M. suipneumoniae NB12; test: Anti-mycoplasmal activity in vitro MIC; settings: Mesomycoplasma hyopneumoniae
[2] = system: M. suipneumoniae JF 435; test: Anti-mycoplasmal activity in vitro MIC; settings: Mesomycoplasma hyopneumoniae, JF435, 144 h
[3] = system: M. suipneumoniae HK (2); test: Anti-mycoplasmal activity in vitro MIC; settings: Mesomycoplasma hyopneumoniae, 144 h
[4] = system: M. suipneumoniae Str. 11; test: Anti-mycoplasmal activity in vitro MIC; settings: Mesomycoplasma hyopneumoniae
[5] = system: M. suipneumoniae MS16; test: Anti-mycoplasmal activity in vitro MIC; settings: Mesomycoplasma hyopneumoniae
[6] = system: M. suipneumoniae PW/C/210; test: Anti-mycoplasmal activity in vitro MIC; settings: Mesomycoplasma hyopneumoniae, 144 h
[7] = system: M. suipneumoniae LABER; test: Anti-mycoplasmal activity in vitro MIC; settings: Mesomycoplasma hyopneumoniae, 144 h
[8] = system: M. suipneumoniae UCD 1; test: Anti-mycoplasmal activity in vitro MIC; settings: Mesomycoplasma hyopneumoniae, UCD1, 144 h
[9] = system: M. suipneumoniae TAM 6N; test: Anti-mycoplasmal activity in vitro MIC; settings: Mesomycoplasma hyopneumoniae, TAM6N, 144 h
[10] = system: M. suipneumoniae NCTC 10110; test: Anti-mycoplasmal activity in vitro MIC; settings: Mesomycoplasma hyopneumoniae, NCTC10110, 144 h
[11] = system: M. hyorhinis ATCC 23234; test: Anti-mycoplasmal activity in vitro MIC; settings: Mesomycoplasma hyorhinis, ATCC23234, 144 h
[12] = system: M. hyorhinis ATCC 25021; test: Anti-mycoplasmal activity in vitro MIC; settings: Mesomycoplasma hyorhinis, ATCC25021, 144 h
[13] = system: M. hyosynoviae ATCC 25591; test: Anti-mycoplasmal activity in vitro MIC; settings: 144 h
[14] = system: M. bovis NCTC 10131; test: microbe, parasite or virus in culture; settings: NCTC10131, 144 h
[15] = system: M. dispar NCTC 10125; test: Anti-mycoplasmal activity in vitro MIC; settings: 144 h
[16] = system: M. gallisepticum S6; test: Anti-mycoplasmal activity in vitro MIC; settings: Mycoplasmoides gallisepticum
[17] = system: Bacillus subtilis 6633; test: Human bacteria MIC
Method: (§1) The values were determined by serial dilutions in nutrient agar with 5% chocolated horse blood after incubations for 18 hours at 37° C.

[18] = system: Corneybacterium xerosis 9755; test: Human bacteria MIC
Method: as §1

[19] = system: E. Coli NCT 10418; test: Human bacteria MIC; settings: Escherichia coli
Method: as §1

[20] = system: E. coli ESS; test: Human bacteria MIC; settings: Escherichia coli
Method: as §1

[21] = system: Pasteurella multocida 1633; test: Human bacteria MIC
Method: as §1

[22] = system: Ps. aeruginosa 10662; test: Human bacteria MIC
Method: as §1

[23] = system: Staph. aureus Oxford; test: Human bacteria MIC; settings: Staphylococcus aureus
Method: as §1

[24] = system: Staph. aureus Russell; test: Human bacteria MIC; settings: Staphylococcus aureus
Method: as §1

[25] = system: Staph. aureus W2827; test: Human bacteria MIC; settings: Staphylococcus aureus; Staph. aureus W2827; nutrient agar, 5% chocolated horse blood, 18 hours 37° C.; read-out: M.I.C.
Method: as §1

[26] = system: Strep. Group C 64/848; test: Human bacteria MIC
Method: as §1

[27] = system: Strep. pneumoniae CN33; test: Human bacteria MIC; settings: Streptococcus pneumoniae
Method: as §1

[28] = system: Strep. pyogenes R80/421; test: Human bacteria MIC; settings: Streptococcus pyogenes
Method: as §1

[29] = 144 h, M. suipneumoniae NB12, Friis broth, 0.9% agarose, 6 days 37° C., read-out: M.I.C.
[30] = 144 h, M. suipneumoniae Str. 11, Friis broth, 0.9% agarose, 6 days 37° C., read-out: M.I.C.
[31] = M. suipneumoniae PW/C/210, Friis broth, 0.9% agarose, 6 days 37° C., read-out: M.I.C.
[32] = M. suipneumoniae LABER, Friis broth, 0.9% agarose, 6 days 37° C., read-out: M.I.C.
[33] = 144 h, M. gallisepticum S6, Friis broth, 0.9% agarose, 6 days 37° C., read-out: M.I.C.
[34] = Bacillus subtilis 6633, nutrient agar, 5% chocolated horse blood, 18 hours 37° C., read-out: M.I.C.
[35] = Corneybacterium xerosis 9755, nutrient agar, 5% chocolated horse blood, 18 hours 37° C., read-out: M.I.C.
[36] = E. Coli NCT 10418, nutrient agar, 5% chocolated horse blood, 18 hours 37° C., read-out: M.I.C.
[37] = E. coli ESS, nutrient agar, 5% chocolated horse blood, 18 hours 37° C., read-out: M.I.C.
[38] = Pasteurella multocida 1633, nutrient agar, 5% chocolated horse blood, 18 hours 37° C., read-out: M.I.C.
[39] = Pseudomonas aeruginosa, Ps. aeruginosa 10662, nutrient agar, 5% chocolated horse blood, 18 hours 37° C., read-out: M.I.C.
[40] = Staph. aureus Oxford, nutrient agar, 5% chocolated horse blood, 18 hours 37° C., read-out: M.I.C.
[41] = Staph. aureus Russell, nutrient agar, 5% chocolated horse blood, 18 hours 37° C., read-out: M.I.C.
[42] = Strep. Group C 64/848, nutrient agar, 5% chocolated horse blood, 18 hours 37° C., read-out: M.I.C.
[43] = Strep. pneumoniae CN33, nutrient agar, 5% chocolated horse blood, 18 hours 37° C., read-out: M.I.C.
[44] = Strep. pyogenes R80/421, nutrient agar, 5% chocolated horse blood, 18 hours 37° C., read-out: M.I.C.

Row | SMILES | MIC [1, 29] [µg/mL] | MIC [2] [µg/mL] | MIC [3] [µg/mL] | MIC [4, 30] [µg/mL] | MIC [6, 31] [µg/mL] | MIC [7, 32] [µg/mL] | MIC [8] [µg/mL] | MIC [9] [µg/mL] | MIC [10] [µg/mL] | MIC [14] [µg/mL] | MIC [16, 33] [µg/mL] | MIC [17, 34] [µg/mL] | MIC [18, 35] [µg/mL] | MIC [19, 36] [µg/mL] | MIC [20, 37] [µg/mL] | MIC [21, 38] [µg/mL] | MIC [22, 39] [µg/mL] | MIC [23, 40] [µg/mL] | MIC [24, 41] [µg/mL] | MIC [25] [µg/mL] | also measured
1 | C/C(=C\C(=O)OCCCC(=NO)c1cccs1)C[C@@H]1OC[C@H](C[C@@H]2O[C@H]2[C@@H](C)[C@H](C)O)[C@@H](O)[C@H]1O [Example 4, 4-Hydroxyimino-4-(2-thienyl)butyl monate A] | 0.25 (≈ 0.489 µM) | 0.5 (≈ 0.977 µM) | 0.5 (≈ 0.977 µM) | 0.25 (≈ 0.489 µM) | 0.25 (≈ 0.489 µM) | 0.25 (≈ 0.489 µM) | 0.5 (≈ 0.977 µM) | 0.5 (≈ 0.977 µM) | 0.5 (≈ 0.977 µM) | 0.025 (≈ 0.0489 µM) | 10 (≈ 19.5 µM) | 1 (≈ 1.95 µM) | > 100 | > 100 | 2.5 (≈ 4.89 µM) | 5 (≈ 9.77 µM) | > 100 | 1 (≈ 1.95 µM) | 2.5 (≈ 4.89 µM) | 2.5 (≈ 4.89 µM) | MIC ([5]; 144 h, M. suipneumoniae MS16, Friis broth, 0.9% agarose, 6 days 37° C., read-out: M.I.C.): 0.25 µg/mL (≈ 0.489 µM); MIC ([11]; M. hyorhinis ATCC 23234, Friis broth, 0.9% agarose, 6 days 37° C., read-out: M.I.C.): 0.25 µg/mL (≈ 0.489 µM); MIC ([12]; M. hyorhinis ATCC 25021, Friis broth, 0.9% agarose, 6 days 37° C., read-out: M.I.C.): 0.25 µg/mL (≈ 0.489 µM); MIC ([13]; M. hyosynoviae ATCC 25591, Friis broth, 0.9% agarose, 6 days 37° C., read-out: M.I.C.): 0.25 µg/mL (≈ 0.489 µM); MIC ([15]; M. dispar NCTC 10125, Friis broth, 0.9% agarose, 6 days 37° C., read-out: M.I.C.): 0.1 µg/mL (≈ 0.195 µM); MIC [26, 42]: 1 µg/mL (≈ 1.95 µM); MIC [27, 43]: 1 µg/mL (≈ 1.95 µM); MIC [28, 44]: 1 µg/mL (≈ 1.95 µM)
2 | C/C(=C\C(=O)OCCCCCC=NN(C)C)C[C@@H]1OC[C@H](C[C@@H]2O[C@H]2[C@@H](C)[C@H](C)O)[C@@H](O)[C@H]1O [Example 6, 6-Dimethylhydrazonohexyl monate A] | 0.5 (≈ 1.03 µM) | – | 1 (≈ 2.06 µM) | 0.5 (≈ 1.03 µM) | 0.5 (≈ 1.03 µM) | 0.5 (≈ 1.03 µM) | 1 (≈ 2.06 µM) | 1 (≈ 2.06 µM) | – | ≤ 0.01 | – | – | – | – | – | – | – | – | – | 0.25 (≈ 0.516 µM) | MIC ([2]; M. suipneumoniae JF 435, Friis broth, 0.9% agarose, 6 days 37° C., read-out: M.I.C.): 0.5 µg/mL (≈ 1.03 µM); MIC ([5]; MS16, 144 h): 0.25 µg/mL (≈ 0.516 µM); MIC ([10]; M. suipneumoniae NCTC 10110, Friis broth, 0.9% agarose, 6 days 37° C., read-out: M.I.C.): 0.5 µg/mL (≈ 1.03 µM); MIC [11]: 0.25 µg/mL (≈ 0.516 µM); MIC [12]: 0.25 µg/mL (≈ 0.516 µM); MIC [13]: 0.1 µg/mL (≈ 0.206 µM); MIC [15]: 0.25 µg/mL (≈ 0.516 µM); MIC ([16]; S6, 144 h): 5 µg/mL (≈ 10.3 µM); MIC ([17]; Bacillus subtilis, 6633, 18 h): 5 µg/mL (≈ 10.3 µM); MIC ([18]; 18 h): > 100 µg/mL; MIC ([19]; 18 h): > 100 µg/mL; MIC ([20]; 18 h): 5 µg/mL (≈ 10.3 µM); MIC ([21]; Pasteurella multocida, 1633, 18 h): 1 µg/mL (≈ 2.06 µM); MIC ([22]; Pseudomonas aeruginosa, 10662, 18 h): > 100 µg/mL; MIC ([23]; 18 h): 0.1 µg/mL (≈ 0.206 µM); MIC ([24]; 18 h): 0.25 µg/mL (≈ 0.516 µM); MIC ([26]; 18 h): 1 µg/mL (≈ 2.06 µM); MIC ([27]; CN33, 18 h): 1 µg/mL (≈ 2.06 µM); MIC ([28]; R80/421, 18 h): 1 µg/mL (≈ 2.06 µM)
3 | C/C(=C\C(=O)OCCCC(=NNC(N)=O)c1ccccc1)C[C@@H]1OC[C@H](C[C@@H]2O[C@H]2[C@@H](C)[C@H](C)O)[C@@H](O)[C@H]1O [Example 2, 4-Phenyl-4-semicarbazonobutyl monate A] | – | 0.5 (≈ 0.913 µM) | 0.5 (≈ 0.913 µM) | – | – | – | 0.5 (≈ 0.913 µM) | 0.5 (≈ 0.913 µM) | 0.5 (≈ 0.913 µM) | 0.05 (≈ 0.0913 µM) | 10 (≈ 18.3 µM) | 2.5 (≈ 4.56 µM) | > 100 | > 100 | 5 (≈ 9.13 µM) | 10 (≈ 18.3 µM) | 100 (≈ 183 µM) | 5 (≈ 9.13 µM) | 10 (≈ 18.3 µM) | 10 (≈ 18.3 µM) | MIC ([1]; NB12, 144 h): 0.25 µg/mL (≈ 0.456 µM); MIC ([4]; STR.11, 144 h): 0.25 µg/mL (≈ 0.456 µM); MIC ([5]; MS16, 144 h): 0.25 µg/mL (≈ 0.456 µM); MIC [6]: 0.25 µg/mL (≈ 0.456 µM); MIC [7]: 0.25 µg/mL (≈ 0.456 µM); MIC [11]: 0.25 µg/mL (≈ 0.456 µM); MIC [12]: 0.25 µg/mL (≈ 0.456 µM); MIC [13]: 0.5 µg/mL (≈ 0.913 µM); MIC [15]: 0.1 µg/mL (≈ 0.183 µM); MIC [26, 42]: 5 µg/mL (≈ 9.13 µM); MIC [27, 43]: 1 µg/mL (≈ 1.83 µM); MIC [28, 44]: 2.5 µg/mL (≈ 4.56 µM)
